# Measurements published in US10188754B2, “Compositions and methods for chemical exchange saturation transfer (CEST) based magnetic resonance imaging (MRI)” (THE JOHNS HOPKINS UNIVERSITY, priority 2013, dated 2019).
# Assay: not given
# Format: physicochemical
# Details: Table 2; 10 mM, pH 7.3-7.4, tsat = 3 sec, ω1 = 3.6 μT, 37° C.
row,Compound,Signal (ppm)
1,"O=C(O)c1cc([N+](=O)[O-])ccc1O [Compound 14, 5-nitrosalicylic acid]",10.3 ppm
2,"O=C(O)c1cc([N+](=O)[O-])cc([N+](=O)[O-])c1O [Compound 15, 3,5-Dinitrosalicylic acid]",None
3,O=C(O)c1ccc(O)cc1O [Compound 16],9.5 ppm
4,Nc1ccc(C(=O)O)c(O)c1 [Compound 17],9.5 ppm
5,O=C(O)c1ccc(C(=O)O)c(O)c1 [Compound 18],9.3 ppm
6,"O=C(O)c1ccc([N+](=O)[O-])cc1O [Compound 19, 2-hydroxy-4-nitrobenzoic acid]",9.5 ppm

# Same assay, conditions: Table 3; 10 mM, pH 7.3-7.4, tsat = 3 sec, ω1 = 3.6 μT, 37° C.
row,Compound,Signal (ppm)
1,"O=C(O)c1c(O)ccc2ccccc12 [Compound 20, 2-hydroxy-l-naphthoic acid]",9.5 ppm

# Same assay, conditions: Table 4; 10 mM, pH 7.3-7.4, tsat = 3 sec, ω1 = 3.6 μT, 37° C.
row,Compound,Signal (ppm)
1,"O=C(O)c1ccc2cccnc2c1O [Compound 30, 8-hydroxy-7-quinolinecarboxylic acid]",10.3 ppm
2,"O=C(O)c1cccc(O)c1O [Compound 31, 2,3-dihydroxybenzoic acid]",9.0 ppm
3,"O=C(O)c1cccc(C(=O)O)c1O [Compound 35, 2-hydroxyisophthalic acid]",9.5 ppm
4,"O=C(O)c1cccc([N+](=O)[O-])c1O [Compound 36, 3-nitrosalicylic acid]",12.0 ppm

# Assay: not given
# Details: Table 2; 10 mM, pH 7.3-7.4, 37° C.
row,Compound,kex
1,O=C(O)c1ccc(O)cc1O [Compound 16],460 s⁻¹
2,Nc1ccc(C(=O)O)c(O)c1 [Compound 17],384 s⁻¹
3,O=C(O)c1ccc(C(=O)O)c(O)c1 [Compound 18],420 s⁻¹
4,"O=C(O)c1ccc([N+](=O)[O-])cc1O [Compound 19, 2-hydroxy-4-nitrobenzoic acid]",1500 s⁻¹

# Same assay, conditions: Table 3; 10 mM, pH 7.3-7.4, 37° C.
row,Compound,kex
1,"O=C(O)c1c(O)ccc2ccccc12 [Compound 20, 2-hydroxy-l-naphthoic acid]",4400 s⁻¹

# Assay: Screening of beta-hydroxy carboxylate analogs for CEST contrast (Table 4A)
# Details: Concentration 5 mM
# Method: All compounds were dissolved in 0.01M phosphate-buffered saline (PBS) with concentrations of 100 mM. They were then titrated by HCl/NaOH to the pH of 6 to 8. The solutions were placed into 1-mm capillary tubes and then assembled in a holder for high throughput CEST MR imaging. […] CEST contrast was quantified by: MTRasym=(S−Δω−S+Δω)/S0 after a voxel-by-voxel B0 correction, with characterized mean Z-spectra and MTRasym spectra for sample ROIs plotted in FIG. 22.
row,Compound,Signal (ppm)
1,Cc1ccc(Cl)c(Nc2ccccc2C(=O)O)c1Cl [Entry 51],4.8 ppm
2,Cc1cccc(Nc2ccccc2C(=O)O)c1C [Entry 52],None
3,Cc1cccc(Nc2ccccc2C(=O)O)c1Cl [Entry 53],None

# Same assay, conditions: Concentration 10 mM
Compound,Signal (ppm),kex
O=C(O)c1ccccc1O [Entry 1],9.3 ppm,400 s⁻¹
O=C(O)CNC(=O)c1ccccc1O [Entry 3],None,–
COC(=O)c1ccccc1O [Entry 4],None,–
COC(=O)c1cc([N+](=O)[O-])ccc1O [Entry 5],None,–
O=[N+]([O-])c1ccccc1O [Entry 6],None,–
COC(=O)c1ccc(O)c([N+](=O)[O-])c1 [Entry 7],None,–
[O-][n+]1cccc2cccc(O)c21 [Entry 8],9.5 ppm,32 s⁻¹
O=Cc1cc(C(=O)O)ccc1O [Entry 9],None,–
O/N=C/c1ccccc1O [Entry 10],None,–
O=C(O)c1ccc(O)c(/C=N/CC/N=C/c2cc(C(=O)O)ccc2O)c1 [Entry 11],7.8 ppm,15400 s⁻¹
Oc1ccccc1-c1nnn[nH]1 [Entry 13],None,–
NC(Cc1cc(I)c(O)c(I)c1)C(=O)O (stereo not shown) [Entry 14],None,–
O=C(O)c1cc(O)ccc1O [Entry 15],8.5 ppm,400 s⁻¹
Nc1ccc(O)c(C(=O)O)c1 [Entry 16],8.5 ppm,380 s⁻¹
O=C(O)c1cc(Cl)ccc1O [Entry 17],9.0 ppm,290 s⁻¹
O=C(O)c1cc([N+](=O)[O-])ccc1O [Entry 19],10.3 ppm,5660 s⁻¹
O=C(O)c1cc([N+](=O)[O-])cc([N+](=O)[O-])c1O [Entry 20],None,–
O=C(O)c1ccc(O)cc1O [Entry 21],9.5 ppm,462 s⁻¹
Nc1ccc(C(=O)O)c(O)c1 [Entry 22],9.5 ppm,384 s⁻¹
O=C(O)c1ccc(C(=O)O)c(O)c1 [Entry 23],9.3 ppm,420 s⁻¹
O=C(O)c1ccc([N+](=O)[O-])cc1O [Entry 24],9.5 ppm,1500 s⁻¹
O=C(O)c1c(O)ccc2ccccc12 [Entry 25],9.5 ppm,4400 s⁻¹
COc1cccc(O)c1C(=O)O [Entry 26],9.0 ppm,4900 s⁻¹
O=C(O)c1c(O)cccc1O [Entry 27],9.3 ppm,30 s⁻¹

Compound,Signal (ppm),kex
Cc1cccc(C(=O)O)c1O [Entry 28],9.5 ppm,250 s⁻¹
O=C(O)c1cccc(F)c1O [Entry 30],9.5 ppm,750 s⁻¹
O=C(O)c1cc(Cl)cc(Cl)c1O [Entry 31],10.3 ppm,1070 s⁻¹
O=C(O)c1cc(Br)cc(Br)c1O [Entry 32],10.5 ppm,580 s⁻¹
O=C(O)c1cc(I)cc(I)c1O [Entry 33],10.8 ppm,310 s⁻¹
O=C(O)c1ccc2ccccc2c1O [Entry 34],10.5 ppm,220 s⁻¹
O=C(O)c1ccc2cccnc2c1O [Entry 35],10.3 ppm,1530 s⁻¹
O=C(O)c1cccc(O)c1O [Entry 36],9.0 ppm,2000 s⁻¹
COc1cccc(C(=O)O)c1O [Entry 37],9.3 ppm,480 s⁻¹
Nc1cccc(C(=O)O)c1O [Entry 38],9.0 ppm,410 s⁻¹
O=Cc1cccc(C(=O)O)c1O [Entry 39],10.5 ppm,510 s⁻¹
O=C(O)c1cccc(C(=O)O)c1O [Entry 40],9.5 ppm,6680 s⁻¹
O=C(O)c1cccc([N+](=O)[O-])c1O [Entry 41],12.0 ppm,1430 s⁻¹
O=C(O)c1cc(O)c(C(=O)O)cc1O [Entry 42],8.3 ppm,990 s⁻¹
O=C(O)c1cc(C(=O)O)c(O)cc1O [Entry 43],9.8 ppm,460 s⁻¹
O=C(O)c1cc2ccccc2c(Cc2c(O)c(C(=O)O)cc3ccccc23)c1O [Entry 44],9.5 ppm,130 s⁻¹
O=C(O)c1ccccc1Nc1ccccc1 [Entry 49],4.8 ppm,674 s⁻¹
O=C(O)c1ccccc1Nc1cccc(C(F)(F)F)c1 [Entry 50],4.8 ppm,1000 s⁻¹
O=C(O)c1cccnc1Nc1cccc(C(F)(F)F)c1 [Entry 54],None,–
O=C(O)c1ccccc1NC(=O)C(F)(F)F [Entry 57],9.3 ppm,190 s⁻¹
CS(=O)(=O)Nc1ccccc1C(=O)O [Entry 58],7.3 ppm,470 s⁻¹
CS(=O)(=O)Nc1ccc(N)cc1C(=O)O [Entry 61],6.3 ppm,550 s⁻¹
Cc1ccc(S(=O)(=O)Nc2ccccc2C(=O)O)cc1 [Entry 62],7.8 ppm,440 s⁻¹

# Same assay, conditions: Concentration 20 mM
Compound,Signal (ppm),kex
CC(C)(C)c1cc(C(=O)O)c(O)c(C(C)(C)C)c1 [Entry 29],9.3 ppm,22 s⁻¹

# Same assay, conditions: Concentration 25 mM
Compound,Signal (ppm),kex
O=C(O)c1ccc(-c2ccc(F)cc2F)cc1O [Entry 45],9.3 ppm,650 s⁻¹
O=C(O)c1cc(/N=N\c2ccc(S(=O)(=O)Nc3ccccn3)cc2)ccc1O [Entry 46],9.6 ppm,1000 s⁻¹
Nc1ccccc1C(=O)O [Entry 47],None,–
CNc1ccccc1C(=O)O [Entry 48],None,–
CC(=O)Nc1ccccc1C(=O)O [Entry 55],None,–
CC(C)(C)OC(=O)Nc1ccccc1C(=O)O [Entry 56],None,–
CS(=O)(=O)Nc1ccc(Cl)cc1C(=O)O [Entry 59],7.3 ppm,1000 s⁻¹
Cc1ccc(NS(C)(=O)=O)c(C(=O)O)c1 [Entry 60],7.0 ppm,500 s⁻¹
O=C(O)c1ccccc1NS(=O)(=O)C(F)(F)F [Entry 63],None,–
O=C(O)c1ccccc1N/N=C\c1ccccc1 [Entry 64],None,–
